Data published in the supplement of paper PMC10331698.
± gives the standard deviation of the averaged measurements.

Columns and labels:
Experiment in all cases: level (log10 ratio to DMSO vehicle control); higher = higher biomarker level / cell amount than vehicle control
Settings in all cases: in DMSO
Perfluoroheptanoic acid = compound: O=C(O)C(F)(F)C(F)(F)C(F)(F)C(F)(F)C(F)(F)C(F)(F)F [Perfluoroheptanoic acid]
Protocol: (§1)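 BioMAP Diversity Plus panel of 12 human primary cell co-culture systems (3C, 4H, LPS, SAg, BT, BF4T, BE3C, CASM3C, HDF3CGF, KF3CT, MyoF, Mphg). Compounds were added 1 h before stimulation and left for 24 h (MyoF 48 h; BT 72 h for soluble read-outs or 6 d for IgG). Biomarkers were read by ELISA, cytotoxicity by SRB, PBMC viability and proliferation by Alamar Blue. Each well value was divided by the mean of 8 DMSO control wells on the same plate and log10 transformed; duplicate blinded samples were tested at 4 concentrations.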

Perfluorobutanoic acid = compound: O=C(O)C(F)(F)C(F)(F)C(F)(F)F [Perfluorobutanoic acid]
Protocol: as §1

[1] = compound: C=CC(F)(F)C(F)(F)C(F)(F)C(F)(F)C(F)(F)C(F)(F)C(F)(F)C(F)(F)C=C [1,8-Divinylperfluorooctane]
Protocol: as §1

[2] = compound: CCN(CCO)S(=O)(=O)C(F)(F)C(F)(F)C(F)(F)C(F)(F)C(F)(F)C(F)(F)C(F)(F)C(F)(F)F [N-Ethyl-N-(2-hydroxyethyl)perfluorooctanesulfonamide]
Protocol: as §1

[3] = compound: OCC(F)(F)OC(F)(F)C(F)(F)OC(F)(F)CO [1H,1H,8H,8H-Perfluoro-3,6-dioxaoctane-1,8-diol]
Protocol: as §1

[4] = compound: C=C(C)C(=O)OCCC(F)(F)C(F)(F)C(F)(F)C(F)(F)C(F)(C(F)(F)F)C(F)(F)F [(Perfluoro-5-methylhexyl)ethyl 2-methylprop-2-enoate]
Protocol: as §1

[5] = compound: O=C(O)C(F)(F)C(F)(F)C(F)F [4H-Perfluorobutanoic acid]
Protocol: as §1

Test System	level (log10) (Perfluoroheptanoic acid; 6700 nM)	level (log10) (Perfluoroheptanoic acid; 20000 nM)	level (log10) (Perfluoroheptanoic acid; 60000 nM)	level (log10) (Perfluorobutanoic acid; 6700 nM)	level (log10) (Perfluorobutanoic acid; 20000 nM)	level (log10) (Perfluorobutanoic acid; 60000 nM)	level (log10) ([1]; 6700 nM)	level (log10) ([1]; 20000 nM)	level (log10) ([2]; 6700 nM)	level (log10) ([2]; 20000 nM)	level (log10) ([3]; 6700 nM)	level (log10) ([3]; 20000 nM)	level (log10) ([3]; 60000 nM)	level (log10) ([4]; 6700 nM)	level (log10) ([4]; 20000 nM)	level (log10) ([5]; 6700 nM)	level (log10) ([5]; 20000 nM)	level (log10) ([5]; 60000 nM)
BF4T:MMP-9	0.0145 ± 0.016	0.0445 ± 0.022	0.103 ± 0.054	0.006 ± 0.045	0.006 ± 0.059	0.022 ± 0.059	-0.004 ± 0.071	-0.0115 ± 0.033	-0.012 ± 0.014	-0.032 ± 0.0014	-0.026 ± 0.047	-0.0145 ± 0.025	0.01 ± 0.037	-0.036 ± 0.05	-0.007 ± 0.038	-0.018 ± 0.028	-0.0245 ± 0.036	-0.008 ± 0.038
BF4T:PAI-I	-0.0045 ± 0.019	0.0005 ± 0.025	0.0015 ± 0.028	-0.003 ± 0.0057	-0.0115 ± 0.0064	0.0025 ± 0.023	-0.01 ± 0.0057	0.0055 ± 0.0064	0.014 ± 0.0014	-0.0105 ± 0.00071	-0.005 ± 0.02	-0.015 ± 0.011	-0.001 ± 0.013	-0.01 ± 0.018	-0.023 ± 0.0057	0.0025 ± 0.013	-0.01 ± 0.0042	0.0105 ± 0.035
BF4T:SRB	-0.0085 ± 0.00071	-0.0115 ± 0.00071	-0.0035 ± 0.018	-0.012 ± 0.0071	-0.0055 ± 0.00071	0 ± 0.0042	-0.0045 ± 0.0021	-0.0025 ± 0.00071	-0.016 ± 0.0071	-0.027 ± 0.018	-0.0045 ± 0.013	-0.0065 ± 0.005	-0.0055 ± 0.0021	-0.016 ± 0.011	-0.007 ± 0.025	0.0005 ± 0.0021	-0.008 ± 0.0057	-0.006 ± 0.0042
BF4T:tPA	-0.0125 ± 0.005	-0.0145 ± 0.015	0.004 ± 0.073	0.0025 ± 0.005	0.0105 ± 0.011	0.011 ± 0.013	-0.0015 ± 0.018	0.0125 ± 0.015	0.0595 ± 0.0064	0.067 ± 0.0028	0.0015 ± 0.021	0.003 ± 0.013	0.0045 ± 0.0078	-0.002 ± 0.0057	-0.037 ± 0.031	-0.002 ± 0.037	0.003 ± 0.028	0.0475 ± 0.022
BF4T:uPA	-0.017 ± 0.0057	-0.0115 ± 0.012	0.009 ± 0.0085	-0.005 ± 0.0071	-0.011 ± 0.021	-0.0025 ± 0.005	-0.0045 ± 0.0064	-0.0095 ± 0.012	0.008 ± 0.0028	0.0055 ± 0.012	-0.0065 ± 0.028	-0.0065 ± 0.03	-0.007 ± 0.03	-0.0295 ± 0.0064	-0.063 ± 0.0014	0.002 ± 0.016	0.019 ± 0.0014	0.0105 ± 0.0021
BT:B cell Proliferation	0.018 ± 0.0085	0.0145 ± 0.033	0.061 ± 0.028	0.0085 ± 0.00071	-0.029 ± 0.014	0.002 ± 0.0042	0.0035 ± 0.037	0.035 ± 0.0085	0.0165 ± 0.005	-0.0405 ± 0.059	-0.011 ± 0.0071	0 ± 0.0014	-0.0145 ± 0.0078	-0.027 ± 0.011	0.001 ± 0.017	0.016 ± 0.0099	0.0055 ± 0.019	0.0065 ± 0.036
BT:PBMC Cytotoxicity	-0.0175 ± 0.0064	0.001 ± 0.0057	0.063 ± 0.0014	0.003 ± 0.011	0.0255 ± 0.018	-0.0175 ± 0.00071	0.0285 ± 0.0035	0.019 ± 0.0042	-0.003 ± 0.027	-0.0615 ± 0.0035	0.003 ± 0.017	-0.0035 ± 0.013	-0.009	0.004 ± 0.0057	0.007 ± 0.021	-0.0175 ± 0.018	-0.0075 ± 0.0035	-0.002 ± 0.047
BT:Secreted IgG	0.0185 ± 0.0092	0.007 ± 0.027	-0.0365 ± 0.011	0.017 ± 0.0028	-0.02 ± 0.035	0.0055 ± 0.022	0.022 ± 0.0071	0.0255 ± 0.019	-0.002 ± 0.016	-1.16 ± 0.3	-0.0135 ± 0.06	0.0085 ± 0.04	-0.054 ± 0.021	-0.0085 ± 0.044	-0.023 ± 0.0085	0.0315 ± 0.036	0.0205 ± 0.03	0.014 ± 0.041
BT:sIL-2	-0.0105 ± 0.14	0.0035 ± 0.037	-0.008 ± 0.075	-0.011 ± 0.0028	0.0285 ± 0.066	0.0095 ± 0.042	0.014 ± 0.035	0.022 ± 0.05	-0.046 ± 0.03	-0.339 ± 0.076	0.002 ± 0.059	-0.0075 ± 0.035	0.033 ± 0.042	-0.0185 ± 0.025	-0.0245 ± 0.039	0.0065 ± 0.054	-0.0275 ± 0.14	-0.056 ± 0.017
BT:sIL-6	0.02 ± 0.065	0.0175 ± 0.044	-0.0375 ± 0.071	0.019 ± 0.064	0.055 ± 0.033	-0.0415 ± 0.088	0.039 ± 0.016	0.0415 ± 0.071	0.078 ± 0.0014	-0.049 ± 0.054	0.057 ± 0.0099	0.0215 ± 0.021	-0.0445 ± 0.026	-0.0095 ± 0.025	0.0305 ± 0.073	-0.008	-0.046 ± 0.031	-0.0915 ± 0.026
BT:sIL-17A	0.047 ± 0.027	0.0865 ± 0.16	-0.0095 ± 0.22	0.0335 ± 0.018	-0.0265 ± 0.025	-0.019 ± 0.021	-0.0055 ± 0.026	0.0625 ± 0.079	0.122 ± 0.083	-0.631 ± 0.21	0.144 ± 0.073	-0.0645 ± 0.022	-0.128 ± 0.16	-0.19 ± 0.31	-0.015 ± 0.15	0.067 ± 0.13	-0.085 ± 0.02	-0.158 ± 0.033
BT:sIL-17F	-0.0725 ± 0.13	-0.023 ± 0.21	-0.013 ± 0.045	0.081 ± 0.035	0.065 ± 0.0014	-0.035 ± 0.024	0.012 ± 0.037	0.051 ± 0.0057	-0.0225 ± 0.029	-0.299 ± 0.037	0.045	-0.0205 ± 0.023	-0.137 ± 0.096	0.004 ± 0.15	-0.0015 ± 0.0092	-0.0445 ± 0.005	-0.067 ± 0.17	-0.0165 ± 0.036
BT:sTNF-alpha	-0.0045 ± 0.11	-0.0405 ± 0.05	-0.064 ± 0.17	0.019 ± 0.093	0.0875 ± 0.069	0.0305 ± 0.023	0.016 ± 0.13	0.102 ± 0.081	-0.031 ± 0.082	-0.312 ± 0.1	0.17 ± 0.053	0.023 ± 0.19	-0.036 ± 0.1	0.0485 ± 0.1	0.0945 ± 0.03	-0.0585 ± 0.022	-0.055 ± 0.0071	-0.048 ± 0.13
LPS:CCL2/MCP-1	-0.0025 ± 0.021	-0.005 ± 0.0028	0.032 ± 0.011	-0.011 ± 0.011	-0.01 ± 0.011	0.0085 ± 0.025	0.0065 ± 0.021	0.0145 ± 0.029	-0.017 ± 0.025	-0.0535 ± 0.012	-0.002	-0.015 ± 0.0071	0.008 ± 0.0057	0.009 ± 0.021	0.0115 ± 0.028	-0.0195 ± 0.0021	-0.007 ± 0.0042	0.017 ± 0.054
LPS:CD40	-0.0135 ± 0.043	0.0055 ± 0.00071	-0.0515 ± 0.079	0.0245 ± 0.061	0 ± 0.03	-0.0095 ± 0.022	0.0305 ± 0.018	0.0225 ± 0.0064	0.0735 ± 0.022	0.122 ± 0.0042	0.006 ± 0.027	0.017 ± 0.0028	0.0005 ± 0.03	0.07 ± 0.038	-0.0015 ± 0.016	-0.0365 ± 0.022	-0.0355 ± 0.021	0.015 ± 0.031
LPS:CD62E/E-Selectin	-0.009 ± 0.0028	0 ± 0.017	0.01	-0.012 ± 0.018	-0.01 ± 0.013	-0.0085 ± 0.005	-0.0215 ± 0.029	-0.023 ± 0.018	0.071 ± 0.02	0.073 ± 0.0042	-0.0065 ± 0.0078	-0.0155 ± 0.015	0.003 ± 0.0057	0.006 ± 0.0099	0.0095 ± 0.012	-0.006 ± 0.013	0.002 ± 0.0028	0.0075 ± 0.011
